Test [1] concerns the target T1, Low molecular weight phosphotyrosine protein phosphatase (Homo sapiens, UniProt P24666).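 Note: Dose-response confirmation assay measuring inhibition of LMPTP enzyme activity by fluorescence intensity read-out.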
T1 sequence (P24666 whole entry): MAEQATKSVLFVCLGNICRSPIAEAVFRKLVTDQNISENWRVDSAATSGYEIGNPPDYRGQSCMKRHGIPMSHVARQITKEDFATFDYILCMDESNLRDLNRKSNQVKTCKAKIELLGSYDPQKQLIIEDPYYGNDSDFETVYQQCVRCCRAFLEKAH
The class given is functional. The conditions noted are these: read-out: IC50_Mean.

Test [2] addresses T2, Leucine aminopeptidase (Plasmodium falciparum 3D7, UniProt Q8IL11).
T2 sequence (Q8IL11 whole entry): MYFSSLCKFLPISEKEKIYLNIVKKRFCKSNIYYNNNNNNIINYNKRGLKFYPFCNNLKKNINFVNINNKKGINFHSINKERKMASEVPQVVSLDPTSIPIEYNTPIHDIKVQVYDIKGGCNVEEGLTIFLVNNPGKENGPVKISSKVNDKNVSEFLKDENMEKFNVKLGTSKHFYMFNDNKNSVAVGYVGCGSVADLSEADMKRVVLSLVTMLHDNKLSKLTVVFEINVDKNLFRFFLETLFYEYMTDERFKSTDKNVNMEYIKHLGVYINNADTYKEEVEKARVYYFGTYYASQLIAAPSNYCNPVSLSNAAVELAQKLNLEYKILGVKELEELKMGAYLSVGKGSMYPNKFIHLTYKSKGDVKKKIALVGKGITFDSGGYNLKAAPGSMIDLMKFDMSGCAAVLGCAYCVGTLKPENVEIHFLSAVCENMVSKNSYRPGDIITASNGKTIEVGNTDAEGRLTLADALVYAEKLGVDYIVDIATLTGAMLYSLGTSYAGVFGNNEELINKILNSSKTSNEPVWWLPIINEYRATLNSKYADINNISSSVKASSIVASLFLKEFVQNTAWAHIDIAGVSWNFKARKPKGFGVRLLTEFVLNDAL
Nature of the test: P. falciparum M17LAP inhibitors, primary screen, biochemical, fluorogenic H-Leu-NHMec substrate, 1536-well (AID 1619). The class given is functional.

The target in test [3] is Melanocortin receptor 4 (Homo sapiens, UniProt P32245). The class given is functional, cell-based.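 Note: Cell-based assay with luminescence read-out, confirmatory dose-response testing for agonist activity of biased ligands at MC4R; human U2OS cells with tagged receptor and beta-arrestin; potency of agonists that increase receptor coupling to beta-arrestin.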
Test [4] in a line: Shn3 3'UTR reporter inhibitors, dose response, cell-based, Clone20 osteoblasts, firefly luciferase, cherry-picked (AID 624132).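 Note: firefly luciferase luminescence from reporter carrying the Shn3 3'UTR in osteoblasts.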 It is filed as functional.
Test [5] can be described thus: HepG2 cell cytotoxicity, dose response, cytotoxicity control for Shn3 inhibitor project, CellTiter-Glo, cherry-picked (AID 624134). It is filed as functional, cell-based. Background: In ATP-based viability assays light output follows the ATP content of the culture.
Test [6] in a line: control 3'UTR Renilla luciferase suppression, dose response, counter-screen for Shn3 inhibitor project, cell-based, Clone20-Shn3RL, cherry-picked (AID 624133). It is filed as functional. On the technique in general: Counterscreens check selectivity or assay interference.
Test [7] concerns the target Photoreceptor-specific nuclear receptor (Homo sapiens, UniProt Q9Y5X4). The class given is functional, cell-based.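 Note: CHO-S cells with Gal4-NCOR and VP16-NR2E3 two-hybrid luciferase reporter.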
Test [8] has as its target T3, Bcl-2-related protein A1 (Mus musculus, UniProt Q07440).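 Note: confirmatory dose–response counterscreen on Bfl-1, used to check hits from a UBC13 polyubiquitin inhibitor campaign.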
T3 sequence (Q07440 whole entry): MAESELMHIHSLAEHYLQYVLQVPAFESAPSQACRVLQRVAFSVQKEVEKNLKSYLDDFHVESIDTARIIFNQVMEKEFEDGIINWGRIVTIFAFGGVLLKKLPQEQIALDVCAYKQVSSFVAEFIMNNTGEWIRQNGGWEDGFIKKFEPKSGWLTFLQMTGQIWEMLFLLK
The class given is functional.

In test [9] the target is T4, Ubiquitin-conjugating enzyme E2 N (Homo sapiens, UniProt P61088).
T4 sequence (P61088 whole entry): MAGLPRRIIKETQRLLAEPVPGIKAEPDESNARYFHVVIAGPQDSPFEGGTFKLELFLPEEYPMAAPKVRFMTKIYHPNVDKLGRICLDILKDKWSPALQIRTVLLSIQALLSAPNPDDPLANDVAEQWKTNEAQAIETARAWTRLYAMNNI
The class given is functional.

For test [10], the target named is T4, Ubiquitin-conjugating enzyme E2 N. It is filed as functional. This is another data set of the same source.
The nature of test [11]: Fluorescence-based cell-based high throughput dose response assay for inhibitors of the interaction of nucleotide-binding oligomerization domain containing 2 (NOD2) and the receptor-interacting serine-threonine kinase 2 (RIPK2). It is filed as functional. The conditions noted are these: Homo sapiens.
The target of test [12] is T5, Apoptotic protease-activating factor 1 (Homo sapiens, UniProt O14727).
T5 sequence (O14727 whole entry): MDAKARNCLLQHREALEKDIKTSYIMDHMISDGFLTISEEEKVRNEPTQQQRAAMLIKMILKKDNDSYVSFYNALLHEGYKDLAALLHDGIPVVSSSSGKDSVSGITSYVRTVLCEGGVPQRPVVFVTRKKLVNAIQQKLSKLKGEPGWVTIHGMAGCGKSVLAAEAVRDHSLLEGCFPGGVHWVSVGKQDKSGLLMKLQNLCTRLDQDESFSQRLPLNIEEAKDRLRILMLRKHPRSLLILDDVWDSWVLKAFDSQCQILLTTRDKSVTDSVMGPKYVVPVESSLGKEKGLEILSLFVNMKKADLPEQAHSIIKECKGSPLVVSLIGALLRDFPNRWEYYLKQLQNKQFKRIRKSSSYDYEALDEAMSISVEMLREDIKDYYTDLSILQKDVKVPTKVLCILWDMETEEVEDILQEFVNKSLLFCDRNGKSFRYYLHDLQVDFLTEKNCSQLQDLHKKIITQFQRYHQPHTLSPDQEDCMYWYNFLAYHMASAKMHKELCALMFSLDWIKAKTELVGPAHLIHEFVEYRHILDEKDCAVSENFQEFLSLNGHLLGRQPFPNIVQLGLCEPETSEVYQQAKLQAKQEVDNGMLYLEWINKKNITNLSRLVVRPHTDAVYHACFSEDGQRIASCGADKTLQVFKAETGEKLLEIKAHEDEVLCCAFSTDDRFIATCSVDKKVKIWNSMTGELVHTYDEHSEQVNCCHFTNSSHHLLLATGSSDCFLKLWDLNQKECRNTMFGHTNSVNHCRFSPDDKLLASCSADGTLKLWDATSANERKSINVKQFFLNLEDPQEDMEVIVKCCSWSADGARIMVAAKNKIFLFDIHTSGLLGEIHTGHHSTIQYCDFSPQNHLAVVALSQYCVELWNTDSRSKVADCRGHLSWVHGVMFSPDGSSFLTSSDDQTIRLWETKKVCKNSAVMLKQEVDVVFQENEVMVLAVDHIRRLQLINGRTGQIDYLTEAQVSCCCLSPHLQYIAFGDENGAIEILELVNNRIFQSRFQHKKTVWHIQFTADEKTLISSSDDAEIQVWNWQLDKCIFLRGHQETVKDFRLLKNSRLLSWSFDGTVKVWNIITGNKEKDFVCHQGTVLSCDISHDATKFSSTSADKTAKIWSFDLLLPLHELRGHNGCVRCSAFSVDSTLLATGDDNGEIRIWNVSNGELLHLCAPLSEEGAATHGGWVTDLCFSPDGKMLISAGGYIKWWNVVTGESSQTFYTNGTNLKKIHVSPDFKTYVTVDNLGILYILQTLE
The class given is functional.

Test [13] concerns P388/ADR. Nature of the test: cells. It is filed as functional. The conditions noted are these: Mus musculus.
The subject of test [14] is SN12K1. Nature of the test: cells. It is filed as functional. The conditions noted are these: Homo sapiens.
In test [15] the test system is P388. Nature of the test: cells. It is filed as functional. The conditions noted are these: Mus musculus.
Test [16] deals with T6, Replicative DNA helicase DnaB (Mycobacterium tuberculosis, UniProt P9WMR3).
T6 sequence (P9WMR3 whole entry): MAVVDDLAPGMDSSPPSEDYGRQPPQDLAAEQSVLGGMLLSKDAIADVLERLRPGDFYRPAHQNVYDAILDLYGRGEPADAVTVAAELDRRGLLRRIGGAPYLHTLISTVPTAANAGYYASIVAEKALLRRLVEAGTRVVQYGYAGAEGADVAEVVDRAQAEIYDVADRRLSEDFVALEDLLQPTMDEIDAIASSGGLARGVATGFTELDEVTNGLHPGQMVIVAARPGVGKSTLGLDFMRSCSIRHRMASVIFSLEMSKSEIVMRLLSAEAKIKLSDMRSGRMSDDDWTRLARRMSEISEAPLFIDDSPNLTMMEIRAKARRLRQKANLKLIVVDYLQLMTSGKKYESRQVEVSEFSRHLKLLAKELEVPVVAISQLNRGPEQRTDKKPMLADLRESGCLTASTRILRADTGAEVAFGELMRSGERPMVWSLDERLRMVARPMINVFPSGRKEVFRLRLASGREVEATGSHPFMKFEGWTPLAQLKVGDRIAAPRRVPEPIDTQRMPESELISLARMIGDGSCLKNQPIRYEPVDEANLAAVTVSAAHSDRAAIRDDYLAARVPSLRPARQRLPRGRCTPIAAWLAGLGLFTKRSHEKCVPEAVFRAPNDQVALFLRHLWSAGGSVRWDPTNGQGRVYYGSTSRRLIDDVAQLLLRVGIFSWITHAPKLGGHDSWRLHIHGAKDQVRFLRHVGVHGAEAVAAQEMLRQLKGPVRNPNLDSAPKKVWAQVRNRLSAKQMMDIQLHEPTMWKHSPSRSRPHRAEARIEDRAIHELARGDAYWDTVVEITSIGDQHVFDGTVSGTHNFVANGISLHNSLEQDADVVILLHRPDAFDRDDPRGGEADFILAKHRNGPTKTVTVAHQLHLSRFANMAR
Nature of the test: DnaB intein splicing inhibitors, dose response, biochemical, cell-free fluorescence (AID 449749). It is filed as functional.

Test [17] deals with T7, Protein RecA (Mycobacterium tuberculosis, UniProt P9WHJ3).
T7 sequence (P9WHJ3 whole entry): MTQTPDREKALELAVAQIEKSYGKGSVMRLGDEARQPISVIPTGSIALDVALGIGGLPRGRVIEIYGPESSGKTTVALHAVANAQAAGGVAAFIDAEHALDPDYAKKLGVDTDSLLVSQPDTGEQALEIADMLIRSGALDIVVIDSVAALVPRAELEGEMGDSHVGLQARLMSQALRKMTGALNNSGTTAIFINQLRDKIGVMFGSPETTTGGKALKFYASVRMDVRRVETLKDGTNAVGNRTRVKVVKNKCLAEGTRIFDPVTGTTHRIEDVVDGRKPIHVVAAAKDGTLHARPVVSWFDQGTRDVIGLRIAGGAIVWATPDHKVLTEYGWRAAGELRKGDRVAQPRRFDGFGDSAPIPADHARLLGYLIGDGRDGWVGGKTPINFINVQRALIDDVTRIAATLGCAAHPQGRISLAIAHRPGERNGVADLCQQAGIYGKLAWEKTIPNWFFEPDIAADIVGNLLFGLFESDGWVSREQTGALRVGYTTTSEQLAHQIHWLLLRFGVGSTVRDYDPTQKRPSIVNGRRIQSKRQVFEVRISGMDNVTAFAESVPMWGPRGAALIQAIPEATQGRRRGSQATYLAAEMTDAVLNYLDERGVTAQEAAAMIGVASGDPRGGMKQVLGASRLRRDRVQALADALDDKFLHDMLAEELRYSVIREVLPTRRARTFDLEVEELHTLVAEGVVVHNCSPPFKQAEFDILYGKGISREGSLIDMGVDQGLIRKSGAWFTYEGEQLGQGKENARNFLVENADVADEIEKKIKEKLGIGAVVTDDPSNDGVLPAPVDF
Nature of the test: Fluorescence Cell-Free Homogeneous Dose Retest to Identify Inhibitors of RecA-Intein Splicing Activity. [Related pubchem assays (depositor defined):AID2097, AID2223, AID489010, AID492950]. The class given is functional.

Calls of active or inactive are those of the source.

Sequence of Photoreceptor-specific nuclear receptor (Q9Y5X4 whole entry, the tested form may be a part): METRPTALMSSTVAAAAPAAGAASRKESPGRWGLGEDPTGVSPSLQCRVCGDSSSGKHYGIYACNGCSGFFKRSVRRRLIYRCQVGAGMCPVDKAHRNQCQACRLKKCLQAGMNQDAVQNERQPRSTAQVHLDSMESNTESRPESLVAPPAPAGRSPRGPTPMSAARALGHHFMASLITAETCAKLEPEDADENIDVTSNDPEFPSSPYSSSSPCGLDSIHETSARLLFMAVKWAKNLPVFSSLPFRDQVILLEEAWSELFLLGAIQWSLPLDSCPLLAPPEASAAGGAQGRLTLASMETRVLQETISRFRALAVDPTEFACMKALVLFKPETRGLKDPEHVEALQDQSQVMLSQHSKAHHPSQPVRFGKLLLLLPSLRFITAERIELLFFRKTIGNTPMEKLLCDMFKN
Sequence of Melanocortin receptor 4 (P32245 whole entry): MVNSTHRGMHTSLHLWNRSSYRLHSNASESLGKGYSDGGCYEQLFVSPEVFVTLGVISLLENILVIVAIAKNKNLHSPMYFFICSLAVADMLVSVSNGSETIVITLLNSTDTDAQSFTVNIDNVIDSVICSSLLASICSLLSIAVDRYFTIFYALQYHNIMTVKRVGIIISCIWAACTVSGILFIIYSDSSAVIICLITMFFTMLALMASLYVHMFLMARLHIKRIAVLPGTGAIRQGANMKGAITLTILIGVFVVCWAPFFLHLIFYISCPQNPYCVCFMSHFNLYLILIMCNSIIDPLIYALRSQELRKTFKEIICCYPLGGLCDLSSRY

On to `CCn1cc(C(=O)O)c(=O)c2cc(F)c(N3CCN(C(=S)NC(=O)c4ccccc4Cl)CC3)cc21`, for which the IC50 in [1] is 5.84 µM (active).
In the case of `C/C(=C\c1ccco1)C1C(C#N)=C(N)Oc2[nH]nc(-c3ccc(C)cc3)c21` (stereo unspecified), the IC50 in test [2] is 132 µM (active). In addition, the EC50 (usually the concentration needed to bring the measured effect to its halfway point) in test [3] is > 89.2 µM (inactive).
For `CN(CC(=O)Nc1ccccc1Cl)C(=O)c1cccc(S(=O)(=O)N2CCN(c3ccc(F)cc3)CC2)c1`, the AC50 (in general, the concentration at which the activity in the assay is half-maximal) in test [4] was 3.62 µM (active); in test [5], > 70 µM (inactive); in [6], 3.53 µM (active). In [7], the IC50 was 8.34 µM (active).
Turning to `Cc1nnc(C)c2c(C)n(-c3ccc4ncccc4c3)c(C)c12`, the IC50 in test [1] is 45.2 µM (inactive).
Consider `CN(C)CCC(=O)C(Cc1ccccc1)c1ccccc1` (stereo unspecified), for which the IC50 in [8] was > 20 µM (inactive); in [9], 13.3 µM (active); in test [10] it was > 20 µM (inactive); in test [11], 4.6 µM (active).
Take `CN(Cc1ccc(Cl)c(Cl)c1)C(=O)c1cccc(S(=O)(=O)N2CCN(Cc3ccccc3)CC2)c1`: the IC50 was > 20 µM (inactive) in test [8], 18.4 µM (active) in test [9], 12.5 µM (active) in [10] and 42.7 µM (active) in [12]. Moreover, the AC50 in test [4] is 3.47 µM (active); in test [5], > 70 µM (inactive); in test [6] it was 7.2 µM (active).
With `Nc1ccn(C2OC(COP(=O)(O)Oc3ccccc3)C(O)C2O)c(=O)n1` (stereo unspecified), the values for the GI50 in test [13], in test [14] and in test [15] were 0.675 µM (active), 5.56 µM (inactive) and 0.264 µM (active), respectively.
`CN1C(=O)c2ccccc2NC(=O)c2cnn(C)c21`: the GI50 in test [13], in test [14] and in test [15] was > 100 µM (inactive) in each case.
As for `CC(=O)Nc1cc(-c2cccnc2)cn2c(-c3cccc(C(F)(F)F)c3)cnc12`, the EC50 in test [3] is 84.1 µM (inactive).
With `COc1ccc2nc3ccccc3c(NCCN(C)CCCl)c2c1`, the GI50 (in general, the concentration at which growth is held to half of that of the control) is 0.424 µM (active) in [13], 0.684 µM (active) in test [14] and 0.256 µM (active) in test [15].
With `CC(=O)c1c(C)[nH]c(C(=O)OCC(=O)c2ccc(Br)cc2)c1C`, the IC50 in test [7] was 3.35 µM (active).
On to `CC(=O)N(C1=C(N2CCOCC2)C(=O)c2ccccc2C1=O)c1ccc(C(=O)O)cc1`, for which the AC50 in [16] was 16.7 µM (active). Moreover, the IC50 in [12] was 26.2 µM (active). The EC50 in [17] was 1.01 µM (active).
With `COC1=CC(=O)c2c(c(O)c3oc4cc(OC)cc(C)c4c(=O)c3c2O)C1=O` [BIKAVERIN], the GI50 in [13] is 1.04 µM (active); in test [14], 0.422 µM (active); in test [15], 0.695 µM (active).
